Laboratory results reported in patent US4250170A, “Antibacterial agents Bu-2349A and B and method of using same” (Bristol-Myers Company, priority 1979, dated 1981).
Values after ≈ are worked out from the molar mass of the structure shown. Like-named read-outs stand apart in the source and are kept apart here.

How the values were obtained:
Type in all cases: cell-based
[1] = system: Neisseria gonorrhoeae (Ng-1); test: MIC, two-fold agar dilution; settings: 18 h, Table 3, GC agar, 10^-2 dilution
[2] = system: Bacteroides fragilis (Bf-7); test: MIC against anaerobic bacteria; settings: 18 h, Table 4, GAM Medium, pH 7
[3] = system: Mycobacterium ranae ATCC 110 (Mr-1); test: MIC, two-fold agar dilution; settings: ATCC110, 18 h, Table 3, Mueller-Hinton agar, 10^-4 dilution
[4] = system: Escherichia coli (Ec-49), APH(3')-2; test: MIC, two-fold agar dilution; settings: 18 h, Table 3, Mueller-Hinton agar, 10^-4 dilution, enzyme APH(3')-2
[5] = system: gram-positive and gram-negative bacteria; test: in vitro antibacterial activity, overall statements
Description: (§1) The minimum inhibitory concentrations (MIC) of Bu-2349A and B were determined against a wide variety of bacteria by the two-fold agar dilution method. Mueller-Hinton agar medium was generally used for the determination of bacterial MIC except for species of Streptococcus, Neisseria and Hemophilus for which Gonococcus agar medium (GC agar, Nissui Co., Tokyo) was used. Gifu anaerobe agar medium (GAM agar, Eiken Co., Tokyo) was used for anaerobic bacteria. The MIC's were determined after overnight incubation at 37° C. with an initial inoculum equivalent to a 10^-4 dilution of an 18-hour culture for the aerobic and anaerobic bacteria, except for Streptococcus, Neisseria and Hemophilus for which a 10^-2 dilution was used.
(§2) The influence of inoculum size on MIC was tested on Mueller-Hinton agar using an inoculum of […], 10^-2 or 10^-4 dilution of the overnight culture of test organisms.
(§3) The effect of media pH on the MIC's of Bu-2349A was determined at three pH levels (6, 7 and 8) using Mueller-Hinton agar.
(§4) The media effect on the MIC's of Bu-2349A was tested using four kinds of assay media: Mueller-Hinton agar (MHA), nutrient agar (NA), heart infusion agar (HIA) and brain heart infusion agar (BHIA). The pH was adjusted at 7 and a 10^-4 dilution of overnight culture was used for the inoculum.

[6] = system: Staphylococcus aureus Terajima (Sa-33); test: MIC, two-fold agar dilution; settings: 18 h, Table 3, Mueller-Hinton agar, 10^-4 dilution
[7] = system: Proteus morganii (Pg-1); test: MIC, two-fold agar dilution; settings: Morganella morganii, 18 h
Description: as §1, §2, §3, §4

[8] = system: Staphylococcus aureus 209P (Sa-1); test: MIC, two-fold agar dilution; settings: 18 h
Description: as §1, §2, §3, §4

[9] = system: Klebsiella pneumoniae (Kp-2); test: MIC, two-fold agar dilution; settings: 18 h
Description: as §1, §2, §3, §4

[10] = system: Escherichia coli ML-1630 (Ec-5), APH(3')-1; test: MIC, two-fold agar dilution; settings: 18 h
Description: as §1, §2, §3, §4

[11] = system: Escherichia coli Juhl (Ec-3); test: MIC, two-fold agar dilution; settings: 18 h
Description: as §1, §2, §3, §4

[12] = system: Pseudomonas aeruginosa (Pa-3); test: MIC, two-fold agar dilution; settings: 18 h
Description: as §1, §2, §3, §4

[13] = system: Proteus mirabilis (Pm-1); test: MIC, two-fold agar dilution
Description: as §1, §2, §3, §4

[14] = system: Bacillus subtilis PCI 219 (Bs-1); test: MIC, two-fold agar dilution; settings: 18 h
Description: as §1, §2, §3, §4

[15] = Table 3, Mueller-Hinton agar, 10^-4 dilution
[16] = pH 6, Table 6, Mueller-Hinton Agar, 10^-4 dilution, pH 6
[17] = pH 7, Table 5, Mueller-Hinton Agar, pH 7, inoculum 10^0 dil.
[18] = pH 7, Table 5, Mueller-Hinton Agar, pH 7, inoculum 10^-2 dil.
[19] = pH 7, Table 5, Mueller-Hinton Agar, pH 7, inoculum 10^-4 dil.
[20] = pH 7, Table 6, Mueller-Hinton Agar, 10^-4 dilution, pH 7
[21] = pH 7, Table 7, pH 7, 10^-4 dilution, BHIA
[22] = pH 7, Table 7, pH 7, 10^-4 dilution, HIA
[23] = pH 7, Table 7, pH 7, 10^-4 dilution, MHA
[24] = pH 7, Table 7, pH 7, 10^-4 dilution, NA
[25] = pH 8, Table 6, Mueller-Hinton Agar, 10^-4 dilution, pH 8

For `C=C1OC(OC2C(CO)OC(Oc3ccc(C(=O)NCCCNCCCCNCCCCN)cc3)C2O)C(O)C(OC2OC(CO)C(OC3OC(C)C(N)C(O)C3NC(=O)C(C)N)C(O)C2O)C1O` (stereo not drawn) [Bu-2349A], the MIC [1] was > 100 µg/mL, the MIC [2] was > 100 µg/mL and the MIC [3] was 3.1 µg/mL (≈ 3.13 µM). The MIC [4] was 1.6 µg/mL (≈ 1.62 µM), the “effect of inoculum size on antibiotic activity” value ([5]; Mueller-Hinton agar, 10^0, 10^-2 or 10^-4 dilution) was “no significant effect” and the “effect of medium on activity” value ([5]; NA and HIA compared with MHA or BHIA, pH 7) was “higher activity in NA and HIA than in MHA or BHIA”. The “inhibitory activity both in vitro and in vivo” value ([5]; gram-positive and gram-negative bacteria, including aminoglycoside-resistant bacteria, summary statement) was “marked inhibitory activity”, the antibacterial activity ([5]; including bacteria which produce aminoglycoside-modifying enzymes) was “active” and the “effect of pH 6 on activity” value ([5]; pH 6 compared with pH 7) was “much reduced activity”. For the same compound, the “effect of pH 8 on activity” value ([5]; pH 8 compared with pH 7) was “approximately twice as active”, the MIC [6] was 1.6 µg/mL (≈ 1.62 µM) and the MIC [7, 15] was 25 µg/mL (≈ 25.2 µM). For the same compound, the MIC [7, 16] was > 50 µg/mL, the MIC [7, 17] was > 50 µg/mL and the MIC [7, 18] was 50 µg/mL (≈ 50.5 µM). It also gave an MIC [7, 19] of 25 µg/mL (≈ 25.2 µM), an MIC [7, 20] of 25 µg/mL (≈ 25.2 µM) and an MIC [7, 21] of 25 µg/mL (≈ 25.2 µM). It also gave an MIC [7, 22] of 25 µg/mL (≈ 25.2 µM), an MIC [7, 23] of 25 µg/mL (≈ 25.2 µM) and an MIC [7, 24] of 6.3 µg/mL (≈ 6.36 µM). It also gave an MIC [7, 25] of 25 µg/mL (≈ 25.2 µM), an MIC [8, 15] of 3.1 µg/mL (≈ 3.13 µM) and an MIC [8, 16] of 50 µg/mL (≈ 50.5 µM). For the same compound, the MIC [8, 17] was 6.3 µg/mL (≈ 6.36 µM), the MIC [8, 18] was 3.1 µg/mL (≈ 3.13 µM) and the MIC [8, 19] was 3.1 µg/mL (≈ 3.13 µM). The MIC [8, 20] was 3.1 µg/mL (≈ 3.13 µM), the MIC [8, 21] was 3.1 µg/mL (≈ 3.13 µM) and the MIC [8, 22] was 1.6 µg/mL (≈ 1.62 µM). It also gave an MIC [8, 23] of 3.1 µg/mL (≈ 3.13 µM), an MIC [8, 24] of 1.6 µg/mL (≈ 1.62 µM) and an MIC [8, 25] of 1.6 µg/mL (≈ 1.62 µM). It also gave an MIC ([9]; Table 3, Mueller-Hinton agar, 10^-4 dilution, read-out: MIC) of 3.1 µg/mL (≈ 3.13 µM), an MIC ([9]; pH 6, Table 6, Mueller-Hinton Agar, 10^-4 dilution, pH 6, read-out: MIC) of 50 µg/mL (≈ 50.5 µM) and an MIC ([9]; pH 7) of 12.5 µg/mL (≈ 12.6 µM). The MIC ([9]; pH 7, Table 5, Mueller-Hinton Agar, pH 7, inoculum 10^-2 dil., read-out: MIC) was 6.3 µg/mL (≈ 6.36 µM), the MIC ([9]; pH 7, Table 5, Mueller-Hinton Agar, pH 7, inoculum 10^-4 dil., read-out: MIC) was 3.1 µg/mL (≈ 3.13 µM) and the MIC ([9]; pH 7, Table 6, Mueller-Hinton Agar, 10^-4 dilution, pH 7, read-out: MIC) was 3.1 µg/mL (≈ 3.13 µM). The MIC ([9]; pH 7, Table 7, pH 7, 10^-4 dilution, BHIA, read-out: MIC) was 3.1 µg/mL (≈ 3.13 µM), the MIC ([9]; pH 7, Table 7, pH 7, 10^-4 dilution, HIA, read-out: MIC) was 1.6 µg/mL (≈ 1.62 µM) and the MIC ([9]; pH 7, Table 7, pH 7, 10^-4 dilution, MHA, read-out: MIC) was 3.1 µg/mL (≈ 3.13 µM). It also gave an MIC ([9]; pH 7, Table 7, pH 7, 10^-4 dilution, NA, read-out: MIC) of 1.6 µg/mL (≈ 1.62 µM), an MIC ([9]; pH 8, Table 6, Mueller-Hinton Agar, 10^-4 dilution, pH 8, read-out: MIC) of 3.1 µg/mL (≈ 3.13 µM) and an MIC ([10]; Table 3, Mueller-Hinton agar, 10^-4 dilution, enzyme APH(3')-1) of 1.6 µg/mL (≈ 1.62 µM). It also gave an MIC [10, 16] of 50 µg/mL (≈ 50.5 µM), an MIC [10, 17] of 6.3 µg/mL (≈ 6.36 µM) and an MIC [10, 18] of 3.1 µg/mL (≈ 3.13 µM). The MIC [10, 19] was 3.1 µg/mL (≈ 3.13 µM), the MIC [10, 20] was 3.1 µg/mL (≈ 3.13 µM) and the MIC [10, 21] was 3.1 µg/mL (≈ 3.13 µM). It also gave an MIC [10, 22] of 1.6 µg/mL (≈ 1.62 µM), an MIC [10, 23] of 3.1 µg/mL (≈ 3.13 µM) and an MIC [10, 24] of 1.6 µg/mL (≈ 1.62 µM). It also gave an MIC [10, 25] of 1.6 µg/mL (≈ 1.62 µM), an MIC [11, 15] of 1.6 µg/mL (≈ 1.62 µM) and an MIC [11, 16] of 25 µg/mL (≈ 25.2 µM). It also gave an MIC [11, 17] of 6.3 µg/mL (≈ 6.36 µM), an MIC [11, 18] of 3.1 µg/mL (≈ 3.13 µM) and an MIC [11, 19] of 3.1 µg/mL (≈ 3.13 µM). The MIC [11, 20] was 3.1 µg/mL (≈ 3.13 µM), the MIC [11, 21] was 6.3 µg/mL (≈ 6.36 µM) and the MIC [11, 22] was 1.6 µg/mL (≈ 1.62 µM). It also gave an MIC [11, 23] of 3.1 µg/mL (≈ 3.13 µM), an MIC [11, 24] of 3.1 µg/mL (≈ 3.13 µM) and an MIC [11, 25] of 1.6 µg/mL (≈ 1.62 µM). For the same compound, the MIC [12, 15] was 25 µg/mL (≈ 25.2 µM), the MIC [12, 16] was > 50 µg/mL and the MIC [12, 17] was > 50 µg/mL. For the same compound, the MIC [12, 18] was 50 µg/mL (≈ 50.5 µM), the MIC [12, 19] was 25 µg/mL (≈ 25.2 µM) and the MIC [12, 20] was 25 µg/mL (≈ 25.2 µM). For the same compound, the MIC [12, 21] was 25 µg/mL (≈ 25.2 µM), the MIC [12, 22] was 12.5 µg/mL (≈ 12.6 µM) and the MIC [12, 23] was 50 µg/mL (≈ 50.5 µM). The MIC [12, 24] was 6.3 µg/mL (≈ 6.36 µM), the MIC [12, 25] was 12.5 µg/mL (≈ 12.6 µM) and the MIC ([13]; Proteus mirabilis, 18 h, Table 3, Mueller-Hinton agar, 10^-4 dilution, read-out: MIC) was 6.3 µg/mL (≈ 6.36 µM). For the same compound, the MIC ([13]; Proteus mirabilis, 18 h, pH 6, Table 6, Mueller-Hinton Agar, 10^-4 dilution, pH 6, read-out: MIC) was > 50 µg/mL, the MIC ([13]; Proteus mirabilis, 18 h, pH 7) was 12.5 µg/mL (≈ 12.6 µM) and the MIC ([13]; Proteus mirabilis, 18 h, pH 7, Table 5, Mueller-Hinton Agar, pH 7, inoculum 10^0 dil., read-out: MIC) was 50 µg/mL (≈ 50.5 µM). For the same compound, the MIC ([13]; Proteus mirabilis, 18 h, pH 7, Table 5, Mueller-Hinton Agar, pH 7, inoculum 10^-2 dil., read-out: MIC) was 25 µg/mL (≈ 25.2 µM), the MIC ([13]; Proteus mirabilis, 18 h, pH 7, Table 7, pH 7, 10^-4 dilution, HIA, read-out: MIC) was 6.3 µg/mL (≈ 6.36 µM) and the MIC ([13]; Proteus mirabilis, 18 h, pH 7, Table 7, pH 7, 10^-4 dilution, MHA, read-out: MIC) was 6.3 µg/mL (≈ 6.36 µM). The MIC ([13]; Proteus mirabilis, 18 h, pH 7, Table 7, pH 7, 10^-4 dilution, NA, read-out: MIC) was 3.1 µg/mL (≈ 3.13 µM), the MIC ([13]; Proteus mirabilis, 18 h, pH 8) was 12.5 µg/mL (≈ 12.6 µM) and the MIC ([13]; Table 6, Mueller-Hinton Agar, 10^-4 dilution, pH 7) was 12.5 µg/mL (≈ 12.6 µM). For the same compound, the MIC ([13]; Table 7, pH 7, 10^-4 dilution, BHIA) was 12.5 µg/mL (≈ 12.6 µM), the MIC [14, 15] was 1.6 µg/mL (≈ 1.62 µM) and the MIC [14, 16] was 50 µg/mL (≈ 50.5 µM). The MIC [14, 17] was 6.3 µg/mL (≈ 6.36 µM), the MIC [14, 18] was 3.1 µg/mL (≈ 3.13 µM) and the MIC [14, 19] was 3.1 µg/mL (≈ 3.13 µM). It also gave an MIC [14, 20] of 3.1 µg/mL (≈ 3.13 µM), an MIC [14, 21] of 6.3 µg/mL (≈ 6.36 µM) and an MIC [14, 22] of 1.6 µg/mL (≈ 1.62 µM). It also gave an MIC [14, 23] of 3.1 µg/mL (≈ 3.13 µM), an MIC [14, 24] of 0.8 µg/mL (≈ 0.808 µM) and an MIC [14, 25] of 1.6 µg/mL (≈ 1.62 µM).
